Measured values reported in patent US9365506B2, “Compounds and compositions as TLR2 agonists” (NOVARTIS AG, priority 2010, dated 2016).
pEC50: −log10 of the molar value. Like-named read-outs stand apart in the source and are kept apart here.

Tests used:
[1] = Evaluation of % alum binding at pH 6.5 (HPLC-MS/MS of supernatant); format: physicochemical; details: 1 mg/mL formulation with aluminum hydroxide adjuvant in Histidine buffer, stirred at 25° C. overnight, control without aluminum hydroxide
Experimental: Evaluation of % Alum Binding
The binding of certain compounds of Formula (I) to aluminum-containing adjuvants at pH 6.5 was evaluated using HPLC-MS/MS to monitor the presence of the compound of Formula (I) in the supernatant.
Evaluation of Binding at pH 6.5
To a mixture of compound (4 mg/mL) in Endotox free water was added 1 M NaOH (2.1 eq) to achieve a clear solution. A mixture of the resulting solution (0.5 mL), Endotox free water (0.86 mL), 100 mM Histidine buffer (0.2 mL) and aluminum hydroxide adjuvant (13.78 mg/mL, 0.44 mL) was stirred at 25° C. overnight to result in a 1 mg/mL formulation. An additional 1 mg/mL formulation was prepared as control in 10 mM Histidine buffer without aluminum hydroxide.
Three 50 uL aliquots of each formulation (in Histidine buffer with and without aluminum hydroxide) were centrifuged at 14,000 rpm for 10 minutes at 4° C. The supernatant was diluted, treated with an internal standard and analyzed by HPLC-MS/MS using a ballistic gradient (from 50% CH3CN-1.0% NH4OH to 95% CH3CN-1.0% NH4OH in 1.5 minutes) on a C8 ([…]×2.1 mm) Waters XBridge column at ambient temperature. The supernatant concentration was determined for each formulation. The fraction in the aluminum hydroxide formulation bound to alum was calculated as follows: […]

human TLR2 = human TLR2 (Homo sapiens, UniProt O60603); experiment: Reporter gene assay: HEK 293 cells stably transfected with human TLR2 and NF-kB-driven luciferase reporter; details: for Emax: HEK293, 7 h, read-out: Hek-TLR2 (% Eff); for pEC50: HEK 293 stably transfected with human TLR2 and pNifty-Luciferase, 7 hours incubation, concentration giving 50% of maximal signal; for Hek-TLR2 (% Eff): % Eff relative to Pam3CSK4, HEK 293 human TLR2 NF-kB luciferase
Sequence of human TLR2 (O60603 21-784): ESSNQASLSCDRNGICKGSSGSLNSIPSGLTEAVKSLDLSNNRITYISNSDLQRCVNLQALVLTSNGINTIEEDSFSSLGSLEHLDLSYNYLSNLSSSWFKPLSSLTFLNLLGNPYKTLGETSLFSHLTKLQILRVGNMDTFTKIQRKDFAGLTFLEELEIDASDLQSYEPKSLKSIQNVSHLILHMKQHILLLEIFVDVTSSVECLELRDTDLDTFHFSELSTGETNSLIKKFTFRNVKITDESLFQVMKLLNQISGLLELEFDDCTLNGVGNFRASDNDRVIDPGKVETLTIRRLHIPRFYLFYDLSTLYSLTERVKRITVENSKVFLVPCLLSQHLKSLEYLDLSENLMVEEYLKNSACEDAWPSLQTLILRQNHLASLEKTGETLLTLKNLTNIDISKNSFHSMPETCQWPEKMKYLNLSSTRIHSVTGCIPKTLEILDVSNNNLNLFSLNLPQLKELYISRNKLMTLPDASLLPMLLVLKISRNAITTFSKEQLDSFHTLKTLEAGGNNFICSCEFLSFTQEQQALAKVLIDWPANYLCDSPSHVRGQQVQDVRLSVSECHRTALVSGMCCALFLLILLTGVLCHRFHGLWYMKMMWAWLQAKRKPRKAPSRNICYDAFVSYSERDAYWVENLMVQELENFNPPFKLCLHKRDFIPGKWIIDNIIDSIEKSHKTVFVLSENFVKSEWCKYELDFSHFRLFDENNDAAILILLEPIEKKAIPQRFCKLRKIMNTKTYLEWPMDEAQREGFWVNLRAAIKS
Experimental: As a control assay, normal Hek293 transfected with pNifty-Luc were used. […] Bright-Glo™ Luciferase assay buffer and substrate were supplied by Promega #E263B and #E264B (assay substrate and buffer respectively). 384 well clear-bottom plates were supplied by Greiner bio-one (#789163-G) and were custom bar-coded plates.
Cells were plated at 25,000 cells/well in 384-well plates in a final volume of 50 μl of media. Cells were allowed to adhere to the plates after overnight (18 hours) culture at 37° C. and 5% CO2. Serially diluted experimental and positive control compounds were then dispensed to each well and incubated for 7 hours at 37° C. and 5% CO2. Cells stimulated with DMSO alone also serve as negative controls. After the incubation, 30 μl of the pre-mix assay buffer and substrate buffer were added to each well according to manufacturer's instructions. The luminescence signal was read on a CLIPR machine with an integration time of 20 seconds per plate.

Molecule	Alum Binding % [1] [%]	Emax (human TLR2) [%]	pEC50 (human TLR2; Hek-TLR2 μM (EC50))	Hek-TLR2 (% Eff) (human TLR2)	pEC50 (human TLR2; read-out: Hek-TLR2 μM (EC50))
CCCCCCCCCCCC(=O)OC[C@H](CSC[C@H](N)C(=O)NCCOCCOCCP(=O)(O)O)OC(=O)CCCCCCCCCCC [Example 5, (11R,15R)-11-amino-15-(dodecanoyloxy)-10,18-dioxo-3,6,17-trioxa-13-thia-9-azanonacosylphosphonic acid]	>80				
CCCCCCCCCCCC(=O)OC[C@H](CSC[C@H](N)C(=O)NC1(COCCCP(=O)(O)O)CC1)OC(=O)CCCCCCCCCCC [Example 15, 3-((1-((R)-2-amino-3-((R)-2,3-bis(dodecanoyloxy)propylthio)propanamido)cyclopropyl)methoxy)propylphosphonic acid]	>80				
CCCCCCCCCCCC(=O)OC[C@H](CSC[C@H](N)C(=O)NCCCC(F)(F)P(=O)(O)O)OC(=O)CCCCCCCCCCC [Example 19, 4-((R)-2-amino-3-((R)-2,3-bis(dodecanoyloxy)propylthio)propanamido)-1,1-difluorobutylphosphonic acid]	>80				
CCCCCCCCCCCCOC[C@H](CSC[C@H](N)C(=O)NCCOCCOCCOCCP(=O)(O)O)OCCCCCCCCCCCC [Example 20, (14R,18R)-14-amino-18-(dodecyloxy)-13-oxo-3,6,9,20-tetraoxa-16-thia-12-azadotriacontylphosphonic acid]	>80	84	6.26		
CCCCCCCCCCCCOC[C@H](CSC[C@H](N)C(=O)NCCOCCOCCOCCP(=O)(O)O)NC(=O)CCCCCCCCCCC [Example 26, ((14R,18R)-14-amino-18-dodecanamido-13-oxo-3,6,9,20-tetraoxa-16-thia-12-azadotriacontyl)phosphonic acid]	>80	28	5.76		
CCCCCCCCCCNC(=O)OC[C@H](CSC[C@H](NC(=O)CCCCCC)C(=O)NCCOCCOCCOCCP(=O)(O)O)OC(=O)NCCCCCCCCCC [Example 85, ((14R,18R)-18-((decylcarbamoyl)oxy)-14-heptanamido-13,21-dioxo-3,6,9,20-tetraoxa-16-thia-12,22-diazadotriacontyl)phosphonic acid]		71	5.66		
CCCCCCCCCCCC(=O)OC[C@H](CSC[C@H](N)C(=O)NCCOCCOCCOCCC(=O)O)OC(=O)CCCCCCCCCCC [Example 86, (15R,19R)-15-amino-19-(dodecanoyloxy)-14,22-dioxo-4,7,10,21-tetraoxa-17-thia-13-azatritriacontan-1-oic acid]		84	6.05		
CCCCCCCCCCCCCCCC(=O)N[C@@H](CSC[C@@H](COC(=O)CCCCCCCCCCC)OC(=O)CCCCCCCCCCC)C(=O)NCCOCCOCCOCCC(=O)O [Example 87, (15R,19R)-19-(dodecanoyloxy)-14,22-dioxo-15-palmitamido-4,7,10,21-tetraoxa-17-thia-13-azatritriacontan-1-oic acid]		30	4.42		
CCCCCCCCCCCCCCCC(=O)N[C@@H](CSC[C@@H](COC(=O)CCCCCCCCCCC)OC(=O)CCCCCCCCCCC)C(=O)N[C@@H](CO)C(=O)NCCOCCOCCOCCC(=O)O [Example 89, (15S,18R,22R)-22-(dodecanoyloxy)-15-(hydroxymethyl)-14,17,25-trioxo-18-palmitamido-4,7,10,24-tetraoxa-20-thia-13,16-diazahexatriacontan-1-oic acid]		104	5.31		
CCCCCCCCCCCCOC[C@H](CSC[C@H](N)C(=O)NCCOCCOCCOCCP(=O)(O)O)OC(=O)NCCCCCCCCCC [Example 90, ((14R,18R)-14-amino-18-((dodecyloxy)methyl)-13,20-dioxo-3,6,9,19-tetraoxa-16-thia-12,21-diazahentriacontyl)phosphonic acid]		47	< 4.00		
(4R,7S,10R,14R)-4-carbamoyl-7-ethyl-6,9,17-trioxo-10-palmitamido-14-(palmitoyloxy)-16-oxa-12-thia-5,8-diazadotriacontan-1-oic acid [Example 47]				(88%)	6.25
(4R,7S,10R,14R)-10-amino-4-carbamoyl-7-ethyl-6,9,17-trioxo-14-(palmitoyloxy)-16-oxa-12-thia-5,8-diazadotriacontan-1-oic acid [Example 48]				(106%)	5.87

The remaining molecules from weak to strong by pEC50 (human TLR2; Hek-TLR2 μM (EC50)), led by results:

Alum Binding % [1] [%]	Emax (human TLR2) [%]	pEC50 (human TLR2; Hek-TLR2 μM (EC50))	Molecule	Hek-TLR2 (% Eff) (human TLR2)	pEC50 (human TLR2; read-out: Hek-TLR2 μM (EC50))
	99	6.55	CCCCCCCCCCNC(=O)OC[C@H](CSC[C@H](NC(=O)CCCCC)C(=O)NCCOCCOCCOCCP(=O)(O)O)OC(=O)NCCCCCCCCCC [Example 92, ((14R,18R)-18-((decylcarbamoyl)oxy)-14-hexanamido-13,21-dioxo-3,6,9,20-tetraoxa-16-thia-12,22-diazadotriacontyl)phosphonic acid]		
>80	96	6.57	CCCCCCCCCCCC(=O)OC[C@H](CSC[C@H](N)C(=O)NCCOCCOCCOCCP(=O)(O)O)OC(=O)CCCCCCCCCCC [Example 18, (14R,18R)-14-amino-18-(dodecanoyloxy)-13,21-dioxo-3,6,9,20-tetraoxa-16-thia-12-azadotriacontylphosphonic acid]		
>80	103	6.92	CCCCCCCCCCCC(=O)OC[C@H](CSC[C@H](N)C(=O)NCCOCCP(=O)(O)O)OC(=O)CCCCCCCCCCC [Example 3, (8R,12R)-8-amino-12-(dodecanoyloxy)-7,15-dioxo-3,14-dioxa-10-thia-6-azahexacosylphosphonic acid]		
	120	7.21	CCCCCCCCCCCC(=O)OC[C@H](CSC[C@H](N)C(=O)NCCOCCOS(=O)(=O)O)OC(=O)CCCCCCCCCCC [Example 91, (R)-3-(((R)-2-amino-3-oxo-3-((2-(2-(sulfooxy)ethoxy)ethyl)amino)propyl)thio)propane-1,2-diyl didodecanoate]		
	145	8.04	CCCCCCCCCCCC(=O)OC[C@H](CSC[C@H](N)C(=O)N[C@@H](CO)C(=O)NCCOCCOCCOCCC(=O)O)OC(=O)CCCCCCCCCCC [Example 88, (15S,18R,22R)-18-amino-22-(dodecanoyloxy)-15-(hydroxymethyl)-14,17,25-trioxo-4,7,10,24-tetraoxa-20-thia-13,16-diazahexatriacontan-1-oic acid]		
